The test deals with L1210 leukemia ip in BDF1 mice, survival T/C. The experiment in a line: NCI In Vivo Anticancer Drug Screen. Data for tumor model L1210 Leukemia (intraperitoneal) in B6D2F1 (BDF1) mice. The conditions noted are these: endpoint: mean survival time, higher = longer survival. Summed up: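 Transplantable tumor model; survival measured in treated vs vehicle control mice. Value = treated/control.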

Where [1] appears, read: dose: 12.5 mg/kg/injection, schedule: Q01DX009 (ip), vehicle: saline with Tween-80.
The mark [2] stands for this setting: dose: 25.0 mg/kg/injection, schedule: Q01DX009 (ip), vehicle: saline with Tween-80.
Setting [3] is: dose: 50.0 mg/kg/injection, schedule: Q01DX009 (ip), vehicle: saline with Tween-80.
Setting [4] is: dose: 100.0 mg/kg/injection, schedule: Q04DX003 (ip), vehicle: saline with Tween-80.
Setting [5] is: dose: 200.0 mg/kg/injection, schedule: Q01DX009 (ip), vehicle: saline with Tween-80.
[6] abbreviates: dose: 400.0 mg/kg/injection, schedule: Q01DX009 (ip), vehicle: saline with Tween-80.
Setting [7] is: dose: 50.0 mg/kg/injection, schedule: Q01DX001 (ip), vehicle: saline.
The mark [8] stands for this setting: dose: 100.0 mg/kg/injection, schedule: Q01DX001 (ip), vehicle: saline.
Setting [9] is: dose: 100.0 mg/kg/injection, schedule: Q01DX009 (ip), vehicle: saline with Tween-80.
Where [10] appears, read: dose: 100.0 mg/kg/injection, schedule: Q04DX003 (ip), vehicle: Klucel (hydroxypropylcellulose) (HPC).
The mark [11] stands for this setting: dose: 200.0 mg/kg/injection, schedule: Q04DX003 (ip), vehicle: Klucel (hydroxypropylcellulose) (HPC).
The mark [12] stands for this setting: dose: 400.0 mg/kg/injection, schedule: Q04DX003 (ip), vehicle: Klucel (hydroxypropylcellulose) (HPC).
Where [13] appears, read: dose: 100.0 mg/kg/injection, schedule: Q01DX001 (ip), vehicle: saline with Tween-80.
The mark [14] stands for this setting: dose: 200.0 mg/kg/injection, schedule: Q01DX001 (ip), vehicle: saline with Tween-80.
[15] abbreviates: dose: 200.0 mg/kg/injection, schedule: Q04DX003 (ip), vehicle: saline with Tween-80.
Setting [16] is: dose: 400.0 mg/kg/injection, schedule: Q01DX001 (ip), vehicle: saline with Tween-80.
The mark [17] stands for this setting: dose: 400.0 mg/kg/injection, schedule: Q04DX003 (ip), vehicle: saline with Tween-80.
[18] abbreviates: dose: 200.0 mg/kg/injection, schedule: Q01DX001 (ip), vehicle: saline.
Where [19] appears, read: dose: 400.0 mg/kg/injection, schedule: Q01DX001 (ip), vehicle: saline.
Setting [20] is: dose: 100.0 mg/kg/injection, schedule: Q01DX009 (ip), vehicle: Klucel (hydroxypropylcellulose) (HPC).
The mark [21] stands for this setting: dose: 200.0 mg/kg/injection, schedule: Q01DX009 (ip), vehicle: Klucel (hydroxypropylcellulose) (HPC).
[22] abbreviates: dose: 400.0 mg/kg/injection, schedule: Q01DX009 (ip), vehicle: Klucel (hydroxypropylcellulose) (HPC).
Setting [23] is: dose: 75.0 mg/kg/injection, schedule: Q01DX001 (ip), vehicle: saline.

Each structure is given as a SMILES string. Several values for one entry are separate records, joined by “and”; a condition that tells them apart may be missing. Equal values may be shown once. Inconclusive results and toxic doses are left out.

In the case of `CC(=O)c1csc2ccccc12`, the T/C runs as follows: (dose: 12.5 mg/kg/injection, schedule: Q01DX009 (ip), vehicle: Klucel (hydroxypropylcellulose) (HPC)) 106 % of control; (dose: 25.0 mg/kg/injection, schedule: Q01DX009 (ip), vehicle: Klucel (hydroxypropylcellulose) (HPC)) 101 % of control; (dose: 50.0 mg/kg/injection, schedule: Q01DX009 (ip), vehicle: Klucel (hydroxypropylcellulose) (HPC)) 106 % of control.

Turning to `COc1cc(OC)c(NC(=O)Nc2cccc(Cl)c2C)cc1Cl`, the T/C under setting [1] is 97 % of control and 92 % of control; the T/C under setting [2] is 94 % of control and 95 % of control; the T/C (dose: 25.0 mg/kg/injection, schedule: Q04DX003 (ip), vehicle: saline with Tween-80) is 89 % of control; the T/C under setting [3] is 95 % of control and 87 % of control; the T/C (dose: 50.0 mg/kg/injection, schedule: Q04DX003 (ip), vehicle: saline with Tween-80) was 97 % of control; the T/C (dose: 100.0 mg/kg/injection, schedule: Q04DX002 (ip), vehicle: saline with Tween-80) is 86 % of control and 91 % of control. Also, the T/C by setting is: under setting [4], 92 % of control; under setting [5], 89 % of control and 91 % of control; (dose: 200.0 mg/kg/injection, schedule: Q04DX002 (ip), vehicle: saline with Tween-80) 87 % of control and 90 % of control; under setting [6], 96 % of control and 91 % of control; (dose: 400.0 mg/kg/injection, schedule: Q04DX002 (ip), vehicle: saline with Tween-80) 104 % of control and 91 % of control.

As for `CC1=CC(=O)C=CC1=Nc1cc(Cl)c(O)c(Cl)c1`, the T/C under setting [7] was 101 % of control and the T/C under setting [8] was 95 % of control.

For `CCOc1ccc(NC(=O)NCBr)cc1`, the T/C by setting is: under setting [1], 106 % of control; under setting [2], 95 % of control; under setting [3], 87 % of control; under setting [9], 87 % of control.

With `Nc1nc(N)c(CCCOc2ccc(NC(=O)CCCc3ccc(NC(=O)CBr)cc3)cc2)c(N)n1`, the T/C was 102 % of control under setting [10], 109 % of control under setting [11] and 102 % of control under setting [12].

On to `C/C=C\c1ccc(OCCOC(=O)Nc2c(C)cccc2C)c(OC)c1`, for which the T/C is 92 % of control under setting [9], 89 % of control under setting [5] and 87 % of control under setting [6].

Consider `CC(=O)c1c(C)[nH]c2ccccc12`, for which the T/C was 101 % of control under setting [13]; 95 % of control under setting [4]; 103 % of control under setting [14]; 95 % of control under setting [15]; 97 % of control under setting [16]; 95 % of control under setting [17].

As for `COC1OC(C)CC(O)C1O` (stereo not given), the T/C was 97 % of control (dose: 100.0 mg/kg/injection, schedule: Q04DX003 (ip), vehicle: saline); 103 % of control (dose: 200.0 mg/kg/injection, schedule: Q04DX003 (ip), vehicle: saline); 109 % of control (dose: 400.0 mg/kg/injection, schedule: Q04DX003 (ip), vehicle: saline).

With `CC(=O)Nc1ccc(OC(C)(C)C)cc1`, the T/C by setting is: under setting [7], 101 % of control; under setting [8], 106 % of control; under setting [18], 97 % of control; under setting [19], 95 % of control.

`O=C(O)C1CCOCC1`: the T/C under setting [20] was 98 % of control; the T/C under setting [10] was 96 % of control; the T/C under setting [21] was 95 % of control; the T/C under setting [11] is 89 % of control; the T/C under setting [22] is 111 % of control; the T/C under setting [12] was 88 % of control.

Turning to `COc1ccc(C(=O)C(C)C(C)=O)c(OCc2ccccc2)c1OC` (stereo not given), the T/C by setting is: (dose: 100.0 mg/kg/injection, schedule: Q01DX001 (ip), vehicle: carboxymethylcellulose (CMC)) 96 % of control; (dose: 200.0 mg/kg/injection, schedule: Q01DX001 (ip), vehicle: carboxymethylcellulose (CMC)) 98 % of control; (dose: 400.0 mg/kg/injection, schedule: Q01DX001 (ip), vehicle: carboxymethylcellulose (CMC)) 93 % of control.

`CN(Cc1cnc2nc(N)cc(N)c2n1)c1ccc(C(=O)NC(CCC(=O)O)C(=O)O)cc1` (stereo not given): the T/C runs as follows: (dose: 0.5 mg/kg/injection, schedule: Q01DX009 (ip), vehicle: other) 102 % of control; (dose: 1.0 mg/kg/injection, schedule: Q01DX009 (ip), vehicle: other) 100 % of control; (dose: 2.0 mg/kg/injection, schedule: Q01DX009 (ip), vehicle: other) 112 % of control; (dose: 4.0 mg/kg/injection, schedule: Q01DX009 (ip), vehicle: other) 105 % of control; (dose: 8.0 mg/kg/injection, schedule: Q01DX009 (ip), vehicle: other) 117 % of control; (dose: 50.0 mg/kg/injection, schedule: Q01DX009 (ip), vehicle: other) 154 % of control. Also, under “dose: 100.0 mg/kg/injection, schedule: Q01DX009 (ip), vehicle: other”, the T/C was 164 % of control.

In the case of `S=C=Nc1cccc(Cl)c1`, the T/C is, setting by setting: under setting [23], 100 % of control; (dose: 150.0 mg/kg/injection, schedule: Q01DX001 (ip), vehicle: saline) 96 % of control.

Take `Cc1ccc(NC(=O)NNC(=O)CCCC(=O)NNC(=O)Nc2ccc(C)cc2)cc1`: the T/C was 96 % of control under setting [7], 102 % of control under setting [8], 96 % of control under setting [18] and 96 % of control under setting [19].

`CCOC(=O)NCS(=O)(=O)c1ccccc1-c1ccccc1`: the T/C is 93 % of control under setting [10] and 104 % of control under setting [11].

`CCCCCCOC(=O)Nc1ccc(S(=O)(=O)N(CCC)CCC)cc1`: the T/C by setting is: under setting [8], 97 % of control; under setting [18], 95 % of control; under setting [19], 97 % of control.

Regarding `CCCOCCOCCOC(C)Oc1ccccc1OC` (stereo not given), the T/C (dose: 100.0 mg/kg/injection, schedule: Q04DX002 (ip), vehicle: saline) is 92 % of control; the T/C (dose: 200.0 mg/kg/injection, schedule: Q04DX002 (ip), vehicle: saline) is 88 % of control; the T/C (dose: 400.0 mg/kg/injection, schedule: Q04DX002 (ip), vehicle: saline) was 95 % of control.

Turning to `CSCCC(NC(=O)COc1ccc(Cl)cc1Cl)C(=O)O` (stereo not given), the T/C under setting [20] was 100 % of control, the T/C under setting [21] was 101 % of control and the T/C under setting [22] is 108 % of control.

In the case of `O=C(NCCCCC(Cl)C(=O)O)c1ccccc1` (stereo not given), the T/C reads like this: under setting [4], 100 % of control; under setting [15], 100 % of control; under setting [17], 100 % of control.

`CC(C)P(=S)(OCc1ccccc1)C(C)C`: the T/C is, setting by setting: under setting [13], 99 % of control; under setting [14], 98 % of control; under setting [16], 105 % of control.

As for `Nc1ccccc1CSc1nc2nc[nH]c2c(=O)[nH]1`, the T/C (dose: 5.0 mg/kg/injection, schedule: Q01DX009 (ip), vehicle: Klucel (hydroxypropylcellulose) (HPC)) was 99 % of control; the T/C (dose: 10.0 mg/kg/injection, schedule: Q01DX009 (ip), vehicle: Klucel (hydroxypropylcellulose) (HPC)) is 97 % of control; the T/C (dose: 20.0 mg/kg/injection, schedule: Q01DX009 (ip), vehicle: Klucel (hydroxypropylcellulose) (HPC)) is 103 % of control.

For the compound `CCN1CCc2ccccc2C1c1ccccc1` (stereo not given), the T/C reads like this: (dose: 25.0 mg/kg/injection, schedule: Q01DX009 (ip), vehicle: saline) 104 % of control; (dose: 50.0 mg/kg/injection, schedule: Q01DX009 (ip), vehicle: saline) 103 % of control; (dose: 100.0 mg/kg/injection, schedule: Q01DX009 (ip), vehicle: saline) 106 % of control and 115 % of control.

For `C/C=C(\CC)C1(C(C)C)C(=O)NC(=O)NC1=O`, the T/C under setting [23] is 91 % of control.

The record behind these values is PubChem BioAssay AID248 (DTP/NCI, 2004).
